According to ChEMBL document CHEMBL4428082, “Aligning Potency and Pharmacokinetic Properties for Pyridine-Based NCINIs” (ACS Med Chem Lett, 2016):

Key:
[1] = test system: Human immunodeficiency virus; assay: Ratio of EC50 for HIV1 NL4.3 integrase N124/T125 double mutant in presence of human serum to EC50 for HIV1 NL4.3 integrase N124/T125 double mutant in absence of human serum
[2] = Half life in human liver microsomes; type: ADME, Microsome
[3] = Inhibition of HIV NL4.3 integrase T124/T125 double mutant assessed as reduction in viral replication by luciferase reporter gene assay; set-up: species or system Human immunodeficiency virus
[4] = Solubility of the compound at pH 6.8; type: physicochemical; conditions: buffer
[5] = Inhibition of HIV NL4.3 integrase N124/T125 double mutant assessed as reduction in viral replication by luciferase reporter gene assay; set-up: species or system Human immunodeficiency virus
[6] = Total drug excretion in rat bile assessed as acyl glucuronide of parent compound at 3 hrs; type: ADME, tissue-based; conditions: in vivo
[7] = Volume of distribution at steady state in rat; type: ADME; conditions: in vivo, read-out: Vdss
[8] = Clearance in iv dosed rat relative to hepatic blood flow; type: ADME, organism-based; conditions: in vivo
[9] = Apparent permeability in human Caco2 cells; type: ADME, cell-based; conditions: Caco-2
[10] = Clearance in rat hepatocytes relative to hepatic blood flow; type: ADME, cell-based, Hepatocyte; conditions: read-out: CLH
[11] = Clearance in human hepatocytes relative to hepatic blood flow; type: ADME, cell-based, Hepatocyte; conditions: read-out: CLH
[12] = Clearance in rat relative to hepatic blood flow; type: ADME; conditions: in vivo

Compound | Ratio EC50 [1] | half-life [2] [h] | EC50 [3] [nM] | EC50 [5] [nM] | also measured
Cc1nc(-c2nc3cccc(C)c3n2C)c(C)c(-c2ccc(Cl)cc2)c1[C@H](OC(C)(C)C)C(=O)O | 3.2 | 2 | 3 | – | –
Cc1nc(-c2nc3ccccc3n2C)c(C)c(-c2ccc3c(c2C)N(C)CCO3)c1[C@H](OC(C)(C)C)C(=O)O | 4.9 | 3.25 | 3.3 | 59 | solubility [4]: > 1000 µg/mL; Drug excretion [6]: 70%; Vd [7]: 1.6 L/kg; CL [8]: 24%; Papp [9]: 10.6 ×10⁻⁶ cm/s; hepatic extraction ratio [10]: 0.19; hepatic extraction ratio [11]: 0.24
Cc1nc(NC(=O)c2ccccc2)c(C)c(-c2ccc(Cl)cc2)c1[C@H](OC(C)(C)C)C(=O)O | – | – | 15 | 1100 | –
Cc1nc(C(=O)N[C@H]2CC[C@H](C)CC2)c(C)c(-c2ccc3c4c(cccc24)CCO3)c1[C@H](OC(C)(C)C)C(=O)O | 2.9 | > 5 | 16 | > 2500 | –
Cc1nc(C(=O)NCc2ccccc2)c(C)c(-c2ccc3c(c2)CCCO3)c1[C@H](OC(C)(C)C)C(=O)O | 23 | – | 14 | 200 | –
Cc1ccc2[nH]c(-c3nc(C)c([C@H](OC(C)(C)C)C(=O)O)c(-c4ccc(Cl)cc4)c3C)nc2c1 | 13 | 2.77 | 1.1 | – | –
Cc1nc(C(=O)N[C@H]2CC[C@H](O)CC2)c(C)c(-c2ccc(Cl)cc2)c1[C@H](OC(C)(C)C)C(=O)O | – | > 5 | 930 | – | –
Cc1nc(C(=O)N[C@H]2CC[C@H](C)CC2)c(C)c(-c2ccc3c(c2)N(C)CCO3)c1[C@H](OC(C)(C)C)C(=O)O | 4.1 | > 5 | 6.8 | 600 | –
Cc1noc(C)c1-c1ccc(-c2nc(C)c([C@H](OC(C)(C)C)C(=O)O)c(-c3ccc4c(c3)CCCO4)c2C)cc1 | 7.8 | – | 5.5 | 390 | –
Cc1nc2ccccc2c(-c2ccc3c4c(ccnc24)CCO3)c1[C@H](OC(C)(C)C)C(=O)O [BI-224436] | – | – | 19 | 30 | CL [12]: 0.7%
Cc1nc(C(=O)N[C@H]2CC[C@H](C)CC2)c(C)c(-c2ccc3c(c2C)NCCO3)c1[C@H](OC(C)(C)C)C(=O)O | 3 | 3.12 | 7.5 | 130 | –
Cc1nc(C(=O)N[C@H]2CC[C@H](C)CC2)c(C)c(-c2ccc(Cl)cc2)c1[C@H](OC(C)(C)C)C(=O)O | 3.7 | 3.07 | 7.3 | 570 | –
